Legend:
Experiment in all cases: CTG-3D luminescence at 96 h relative to day-0 seeding control (ratio to day 0); higher = more growth / less cytotoxicity; PDxO 3D drug screen, 96 h, CTG-3D normalised to day-0 seeding control.
HCI-019 = tested on: HCI-019 (organoid from a triple-negative breast cancer xenograft)
HCI-003.E2 = tested on: HCI-003.E2 (organoid from an ER-positive breast cancer xenograft)
HCI-001 = tested on: HCI-001 (organoid from a triple-negative breast cancer xenograft)
HCI-002 = tested on: HCI-002 (organoid from a triple-negative breast cancer xenograft)
HCI-024 = tested on: HCI-024 (organoid from a breast cancer xenograft)

C[C@]12CC[C@@H]3c4ccc(O)cc4C[C@@H](CCCCCCCCC[S+]([O-])CCCC(F)(F)C(F)(F)F)[C@H]3[C@@H]1CC[C@@H]2O (stereo partly specified) [fulvestrant]
CTG-3D luminescence at 96 h
Settings | 12.5 pM | 0.00025 µM | 0.005 µM | 0.1 µM | 1 µM | 10 µM | 100 µM | 625 fM
HCI-001, days in culture: 240 | 1.44 | 1.04 | 1.03 | 0.906 | 1.68 | 1.06 | 1.55 | 1.65
HCI-001, days in culture: 260 | 2.56 | 1.23 | 1.9 | 1.86 | 1.59 | 1.46 | 1.1 | 1.68
HCI-001, days in culture: 269 | 1.44 | 1.59 | 1.41 | 1.34 | 1.45 | 1.7 | 1.69 | 1.43
HCI-001, days in culture: 327 | 1.73 | 1.68 | 2.18 | 1.97 | 1.64 | 1.23 | 1.65 | 2.08
HCI-001, days in culture: 346 | 1.34 | 1.3 | 1.11 | 1.33 | 1.42 | 1.16 | 1.38 | 1.11
HCI-001, days in culture: 364 | 1.63 | 1.34 | 1.37 | 0.918 | 0.954 | 1.28 | 1.02 | 1.75
HCI-002, days in culture: 62 | 2.97 | 2.65 | 3.14 | 2.57 | 2.65 | 3.11 | 2.61 | 2.86
HCI-002, days in culture: 82 | 2.97 | 2.85 | 2.4 | 2.79 | 2.79 | 2.61 | 2.5 | 2.6
HCI-002, days in culture: 91 | 3.59 | 3.05 | 2.86 | 3.23 | 2.74 | 3.39 | 2.65 | 3.54
HCI-002, days in culture: 191 | 2.73 | 3.1 | 2.93 | 2.95 | 3.38 | 2.54 | 2.67 | 2.7
HCI-002, days in culture: 209 | 2.15 | 2.27 | 2.46 | 2.23 | 2.28 | 1.83 | 2.35 | 2.47
HCI-002, days in culture: 227 | 5.09 | 4.65 | 4.95 | 5.59 | 4.77 | 5 | 4.58 | 5.27
HCI-019, days in culture: 110 | 2.08 | 1.72 | 1.89 | 2.26 | 1.97 | 2.13 | 1.73 | 1.57
HCI-019, days in culture: 131 | 2.86 | 3.69 | 2.72 | 3.98 | 3.13 | 2.98 | 1.94 | 4.13
HCI-019, days in culture: 152 | 2.85 | 3 | 3.24 | 2.41 | 1.37 | 2.3 | 1.6 | 2.94
HCI-024, days in culture: 105 | 1.45 | 1.55 | 1.32 | 1.36 | 1.34 | 2.02 | 1.67 | 1.87
HCI-024, days in culture: 122 | 2.08 | 2.51 | 2.43 | 1.84 | 1.77 | 2.65 | 1.86 | 2.53
HCI-024, days in culture: 163 | 1.83 | 1.9 | 1.55 | 2.47 | 2.05 | 1.88 | 2.09 | 1.91

HCI-003.E2
Settings | CTG-3D luminescence at 96 h
12.5 pM | 2.4
0.00025 µM | 2.42
0.005 µM | 2.09
0.1 µM | 2.42
1 µM | 1.9
10 µM | 1.54
100 µM | 1.41
625 fM | 2.03

Nc1ccn([C@@H]2O[C@H](CO)[C@@H](O)C2(F)F)c(=O)n1 [gemcitabine]
CTG-3D luminescence at 96 h
Settings | 12.5 pM | 0.00025 µM | 0.005 µM | 0.1 µM | 1 µM | 10 µM | 100 µM | 625 fM
HCI-001, days in culture: 240 | 1.56 | 1.26 | 1.1 | 0.596 | 0.86 | 0.454 | 0.527 | 1.22
HCI-001, days in culture: 260 | 2.47 | 0.95 | 1.44 | 0.622 | 0.617 | 0.522 | 0.302 | 1.77
HCI-001, days in culture: 269 | 1.5 | 1.62 | 1.4 | 0.602 | 0.42 | 0.735 | 0.331 | 1.53
HCI-001, days in culture: 327 | 1.48 | 0.959 | 1.31 | 0.497 | 0.506 | 0.37 | 0.222 | 1.83
HCI-001, days in culture: 346 | 1.31 | 1.2 | 1.1 | 0.33 | 0.429 | 0.5 | 0.259 | 1.1
HCI-001, days in culture: 364 | 1.41 | 1.23 | 1.3 | 0.275 | 0.401 | 0.332 | 0.147 | 1.33
HCI-002, days in culture: 62 | 2.82 | 2.59 | 2.68 | 0.347 | 0.301 | 0.302 | 0.333 | 2.87
HCI-002, days in culture: 82 | 3.16 | 3.03 | 2.46 | 0.461 | 0.431 | 0.271 | 0.234 | 3.23
HCI-002, days in culture: 91 | 4.24 | 3.02 | 3.08 | 0.544 | 0.381 | 0.346 | 0.287 | 3.87
HCI-002, days in culture: 191 | 2.63 | 2.79 | 2.69 | 0.517 | 0.487 | 0.295 | 0.366 | 2.52
HCI-002, days in culture: 209 | 2.52 | 2.33 | 2.08 | 0.339 | 0.32 | 0.178 | 0.242 | 2.33
HCI-002, days in culture: 227 | 5.51 | 5.33 | 4.57 | 1.05 | 0.78 | 0.657 | 0.547 | 4.99
HCI-019, days in culture: 110 | 1.7 | 1.3 | 0.347 | 0.296 | 0.241 | 0.237 | 0.181 | 2.3
HCI-019, days in culture: 131 | 2.42 | 3.53 | 0.976 | 0.427 | 0.344 | 0.344 | 0.213 | 3.6
HCI-019, days in culture: 152 | 2.8 | 4.1 | 0.623 | 0.432 | 0.375 | 0.521 | 0.424 | 2.77
HCI-024, days in culture: 105 | 1.5 | 1.57 | 1.43 | 0.795 | 0.966 | 0.91 | 0.516 | 1.82
HCI-024, days in culture: 122 | 2.2 | 2.2 | 1.93 | 0.864 | 0.97 | 1.31 | 0.459 | 2.9
HCI-024, days in culture: 163 | 1.49 | 1.85 | 1.78 | 1.61 | 1.15 | 0.775 | 0.456 | 2

HCI-003.E2
Settings | CTG-3D luminescence at 96 h
12.5 pM | 2.3
0.00025 µM | 2.24
0.005 µM | 1.81
0.1 µM | 1.35
1 µM | 1.28
10 µM | 1.18
100 µM | 0.939
625 fM | 2.08

C=CC(=O)N1CCC[C@@H](n2nc(-c3ccc(Oc4ccccc4)cc3)c3c(N)ncnc32)C1 [ibrutinib]
CTG-3D luminescence at 96 h
Settings | 12.5 pM | 0.00025 µM | 0.005 µM | 0.1 µM | 1 µM | 10 µM | 100 µM | 625 fM
HCI-001, days in culture: 240 | 1.62 | 0.923 | 0.958 | 1.01 | 0.901 | 0.951 | -0.0017 | 1.14
HCI-001, days in culture: 260 | 2.29 | 1.15 | 2.12 | 0.971 | 1.31 | 1.12 | -0.00311 | 1.46
HCI-001, days in culture: 269 | 1.59 | 1.71 | 1.51 | 1.41 | 1.06 | 1.38 | -0.0108 | 1.48
HCI-001, days in culture: 327 | 1.45 | 1.07 | 1.49 | 1.3 | 1.25 | 0.932 | -0.00545 | 1.92
HCI-001, days in culture: 346 | 1.37 | 1.36 | 1.14 | 0.896 | 1.23 | 1.15 | -0.00544 | 1.3
HCI-001, days in culture: 364 | 1.37 | 1.18 | 1.57 | 0.992 | 1.12 | 1.02 | -0.00371 | 1.6
HCI-002, days in culture: 62 | 2.83 | 2.33 | 2.92 | 2.77 | 1.54 | 1.45 | -0.0218 | 2.97
HCI-002, days in culture: 82 | 3.16 | 2.97 | 2.43 | 2.38 | 1.77 | 1.32 | -0.0175 | 2.68
HCI-002, days in culture: 91 | 3.98 | 3.44 | 3.33 | 3.61 | 2.11 | 1.75 | -0.0238 | 3.98
HCI-002, days in culture: 191 | 2.76 | 2.47 | 2.21 | 2.23 | 1.69 | 1.34 | -0.014 | 2.82
HCI-002, days in culture: 209 | 2.33 | 2.16 | 2.33 | 1.87 | 1.63 | 1 | -0.0179 | 2.34
HCI-002, days in culture: 227 | 5.2 | 5.07 | 4.64 | 4.59 | 2.61 | 2.26 | -0.0321 | 5.19
HCI-019, days in culture: 110 | 1.83 | 0.982 | 1.32 | 2.18 | 1.21 | 1.26 | -0.00836 | 2.04
HCI-019, days in culture: 131 | 2.58 | 3.79 | 2.31 | 2.19 | 1.24 | 2.27 | -0.0163 | 2.86
HCI-019, days in culture: 152 | 3.76 | 3.16 | 2.83 | 2.13 | 1.54 | 1.75 | -0.00421 | 2.48
HCI-024, days in culture: 105 | 1.56 | 1.54 | 1.35 | 1.46 | 1.32 | 1.61 | -0.00218 | 1.84
HCI-024, days in culture: 122 | 2.18 | 2.8 | 2.14 | 1.49 | 1.64 | 1.91 | -0.00165 | 3.5
HCI-024, days in culture: 163 | 1.47 | 2.09 | 2.1 | 2.44 | 1.92 | 1.75 | 0.00762 | 2.03

HCI-003.E2
Settings | CTG-3D luminescence at 96 h
12.5 pM | 2.16
0.00025 µM | 2.46
0.005 µM | 2.1
0.1 µM | 1.93
1 µM | 1.86
10 µM | 0.903
100 µM | -0.00322
625 fM | 2.1

From the supplement of paper PMC8882468
